According to ChEMBL document CHEMBL1201862, “PubChem BioAssay data set” (2004):
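Protocol summary: plate cells (96-well), add compound at 5 concentrations, incubate 48 h, interpolate endpoints linearly. The concentration for 50% growth inhibition is given as GI50.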 The source made the active and inactive calls. No stated cut-off is given here; in the data, active = GI50 up to about 1.1 µM and inactive = higher.

What was measured:
Assay in all cases: NCI tumour cell line growth inhibition, 48 h
[1] = test system: SF-295
[2] = test system: T47D
[3] = test system: SK-MEL-28
[4] = test system: SW-620
[5] = test system: U-251
[6] = test system: Hs-578T
[7] = test system: NCI-H226
[8] = test system: RXF 393
[9] = test system: MCF7
[10] = test system: M14
[11] = test system: MDA-MB-435
[12] = test system: OVCAR-5
[13] = test system: MOLT-4
[14] = test system: NCI-H23
[15] = test system: SNB-19
[16] = test system: HCT-116
[17] = test system: UO-31
[18] = test system: SNB-75
[19] = test system: BT-549

Measured: GI50

O=C1CCC2c3ccccc3NCN12 (stereo not given)
inactive: [1] > 100 µM | [2] > 100 µM | [3] > 100 µM | [4] > 100 µM | [5] > 100 µM | [6] > 100 µM | [7] > 100 µM | [8] > 100 µM | [9] > 100 µM | [10] > 100 µM | [11] > 100 µM | [12] > 100 µM | [13] > 100 µM | [14] > 100 µM | [15] > 100 µM | [16] > 100 µM | [17] > 100 µM | [18] > 100 µM

CC(C)C1=CC23CCC4C(C)(C(=O)O)CCCC4(C)C2CC1C1C(=O)N(c2ccccc2N2C(=O)C4C5CC6C7(C)CCCC(C)(C(=O)O)C7CCC6(C=C5C(C)C)C4C2=O)C(=O)C13 (stereo not given)
inactive: [2] 19.9 µM | [3] 7.89 µM | [4] 12.6 µM | [5] 3.16 µM | [6] 9.55 µM | [7] 12.1 µM | [8] 11.3 µM | [9] 3.66 µM | [10] 5.24 µM | [11] 3.63 µM | [12] 12.2 µM | [13] 2.85 µM | [14] 2.47 µM | [15] 4.79 µM | [16] 5.77 µM | [17] 18.2 µM

c1ccc2c(c1)CC1COc3ccccc3C1O2 (stereo not given)
inactive: [1] 64.4 µM | [2] 51.4 µM | [4] 46.8 µM | [5] 54.3 µM | [7] > 100 µM | [9] 45.2 µM | [10] > 100 µM | [11] 47.4 µM | [12] > 100 µM | [13] 30.3 µM | [14] 67.1 µM | [19] 70.3 µM | [16] 45.8 µM | [17] 51.1 µM | [18] > 100 µM

CC(C)SC(NC(=O)C1C(C)(C)CCC1(C)C)C(=O)O (stereo not given)
inactive: [3] > 100 µM | [4] > 100 µM | [5] > 100 µM | [6] > 100 µM | [7] > 100 µM | [9] > 100 µM | [10] > 100 µM | [11] > 100 µM | [12] > 100 µM | [13] > 10 µM | [14] > 100 µM | [15] > 100 µM | [16] > 100 µM | [17] > 100 µM | [18] > 100 µM

CCOC(=O)c1c(N)sc2c1C(C(=O)OCC)CC2 (stereo not given)
inactive: [2] 18.2 µM | [3] > 100 µM | [4] > 100 µM | [5] 73.3 µM | [6] 93.8 µM | [7] > 100 µM | [8] > 100 µM | [9] > 100 µM | [10] > 100 µM | [12] > 100 µM | [13] 35.6 µM | [14] > 100 µM | [19] 72.3 µM | [15] > 100 µM | [16] 48.4 µM | [17] 62.4 µM | [18] 79.3 µM

CCCCCCC1OC23OC1CCC2C(O)CCC3O (stereo not given)
inactive: [1] > 100 µM | [3] > 100 µM | [4] > 100 µM | [5] > 100 µM | [6] > 100 µM | [7] > 100 µM | [8] > 100 µM | [9] > 100 µM | [11] > 100 µM | [12] > 100 µM | [13] > 100 µM | [14] > 100 µM | [19] > 100 µM | [15] > 100 µM | [16] > 100 µM | [17] > 100 µM | [18] > 100 µM

CC(C)(C)OC(=O)C1CC[C@@H](CC(=O)Oc2ccc([N+](=O)[O-])cc2)N1 (stereo not given in full)
inactive: [1] > 100 µM | [3] > 100 µM | [4] > 100 µM | [5] > 100 µM | [7] > 100 µM | [8] > 100 µM | [9] > 100 µM | [10] > 100 µM | [11] > 100 µM | [12] > 100 µM | [13] > 100 µM | [14] > 100 µM | [15] > 100 µM | [16] > 100 µM | [17] > 100 µM | [18] > 100 µM

C/C=C/C(C#N)(/C=C/c1ccccc1)OP1(=O)OC(c2ccccc2)C(C)N1C (stereo not given)
inactive: [1] 16.3 µM | [2] 20.7 µM | [3] 17.1 µM | [4] 16.1 µM | [5] 17.2 µM | [6] 22.4 µM | [8] 20.7 µM | [9] 22.8 µM | [10] 20 µM | [11] 18.2 µM | [12] 20.1 µM | [13] 10.9 µM | [15] 20.7 µM | [16] 16.6 µM | [17] 17.8 µM | [18] 20.5 µM
